Results on 25 compounds are retold here after patent US10179771B2 (GALAPAGOS NV, priority 2014, dated 2019).

Molecules are shown by their SMILES.

The first experiment deals with T1, Recombinant human JAK2 catalytic domain (Homo sapiens, UniProt O60674).
T1 construct: Recombinant human JAK2 catalytic domain (amino acids 808-1132; catalog number PV4210); GST; purchased Invitrogen PV4210
T1 sequence (O60674 808-1132): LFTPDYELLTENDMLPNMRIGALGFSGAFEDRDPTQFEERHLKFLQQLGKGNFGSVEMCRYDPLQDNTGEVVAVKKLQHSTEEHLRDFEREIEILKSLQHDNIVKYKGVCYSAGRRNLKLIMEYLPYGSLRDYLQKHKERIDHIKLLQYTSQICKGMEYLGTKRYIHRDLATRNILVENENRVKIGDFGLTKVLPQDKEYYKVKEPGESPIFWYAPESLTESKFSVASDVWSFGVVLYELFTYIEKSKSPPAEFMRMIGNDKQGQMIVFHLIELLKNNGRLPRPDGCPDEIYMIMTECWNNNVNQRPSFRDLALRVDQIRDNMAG
Put plainly: JAK2 inhibition assay (polyGT substrate / Ulight-JAK1 peptide assay). The following applies: Comparative Compounds (Table VIII). The class given is biochemical. The protocol: Recombinant human JAK2 catalytic domain (amino acids 808-1132; catalog number PV4210) was purchased from Invitrogen. 0.025 mU of JAK2 is incubated with […] polyGT substrate (Sigma catalog number P0275) in kinase reaction buffer (5 mM MOPS pH 7.5, 9 mM MgAc, 0.3 mM EDTA, 0.06% Brij and 0.6 mM DTT, 1 μM non-radioactive ATP, 0.25 μCi ^33P-gamma-ATP (GE Healthcare, catalog number AH9968) final concentrations) with or without 5 μL containing test compound or vehicle (DMSO, 1% final concentration), in a total volume of 25 μL, in a polypropylene 96-well plate (Greiner, V-bottom). After 90 min at 30° C., reactions are stopped by adding of 25 μL/well of 150 mM phosphoric acid. All of the terminated kinase reaction is transferred to prewashed (75 mM phosphoric acid) 96 well filter plates (Perkin Elmer catalog number 6005177) using a cell harvester (Perkin Elmer). Plates are washed 6 times with 300 μL per well of a 75 mM phosphoric acid solution and the bottom of the plates is sealed. 40 μL/well of Microscint-20 is added, the top of the plates is sealed and readout is performed using the Topcount (Perkin Elmer). Kinase activity is calculated by subtracting counts per min (cpm) obtained in the presence of a positive control inhibitor (10 μM staurosporine) from cpm obtained in the presence of vehicle. The ability of a test compound to inhibit this activity is determined as:
[formula] • RFU test compound=RFU determined for sample with test compound present • RFU control=RFU determined for sample with positive control inhibitor • RFU vehicle=RFU determined in the presence of vehicle
Dose dilution series are prepared for the compounds enabling the testing of dose-response effects in the JAK2 assay and the calculation of the IC50 for each compound. Each compound is routinely tested at concentration of 20 μM followed by a 1/3 serial dilution, 8 points (20 μM-6.67 μM-2.22 μM-740 nM-247 nM-82 nM-27 nM-9 nM) in a final concentration of 1% DMSO. When potency of compound series increased, more dilutions are prepared and/or the top concentration is lowered (e.g. 5 μM, 1 μM).
Recombinant human JAK2 (catalytic domain, amino acids 866-1154; catalog number PV4210) was purchased from Invitrogen. 0.0125 mU of JAK2 was incubated with 25 nM Ulight-JAK1 (tyr1023) peptide (Perkin Elmer catalog number TRF0121) in kinase reaction buffer (25 mM HEPES pH7.0, 0.01% Triton X-100, 7.5 mM MgCl2, 2 mM DTT, 7.5 μM ATP) with or without 4 μL containing test compound or vehicle (DMSO, 1% final concentration), in a total volume of 20 μL, in a white 384 Opti plate (Perkin Elmer, catalog number 6007290). After 60 min at room temperature, reactions were stopped by adding 20 μL/well of detection mixture (1× detection buffer (Perkin Elmer, catalog number CR97-100C), 0.5 nM Europium-anti-phosphotyrosine (PT66) (Perkin Elmer, catalog number AD0068), 10 mM EDTA). Readout is performed using the Envision with excitation at 320 nm and measuring emission at 615 nm (Perkin Elmer). Kinase activity was calculated by subtracting relative fluorescence units (RFU) obtained in the presence of a positive control inhibitor (10 μM staurosporine) from RFU obtained in the presence of vehicle. The ability of a test compound to inhibit this activity was determined as: Percentage inhibition=((RFU determined for sample with test compound present−RFU determined for sample with positive control inhibitor) divided by (RFU determined in the presence of vehicle−RFU determined for sample with positive control inhibitor))*100.
Dose dilution series are prepared for compound enabling the testing of dose-response effects in the JAK2 assay and the calculation of the IC50 for the compound. Each compound is routinely tested at concentration of 20 μM followed by a 1/5 serial dilution, 10 points in a final concentration of 1% DMSO. When potency of compound series increases, more dilutions are prepared and/or the top concentration are lowered (e.g. 5 μM, 1 μM). […]
Broadly, the IC50 is the midpoint of a concentration-inhibition curve. On to `CN(c1ccc2ncn(C)c2c1)c1ccc(C#N)cc1F` [C, 3-fluoro-4-[methyl-(3-methylbenzimidazol-5-yl)amino]benzonitrile, reference compound], for which the IC50 is above 500 nM.

Still in this experiment, the particulars now being: Illustrative Compounds of the invention (Table VII).
For the compound `CNC(=O)Nc1cc(Oc2cnc(C#N)cc2C)cc2c1ncn2C`, the IC50 was in the range of 0.1 to 50 nM.
In the case of `CCc1cc(C#N)cc(F)c1N(C)c1cc(NC(=O)[C@@H]2C[C@@H]2F)c2ncn(C)c2c1` (racemic) [Cpd 7, N-(6-((4-cyano-2-ethyl-6-fluorophenyl)(methyl)amino)-1-methyl-1H-benzo[d]imidazol-4-yl)-2-fluorocyclopropanecarboxamide (1S,2S)/(1R,2R) racemic mixture], the IC50 lay within 0.1 to 50 nM.
Same read-out and setting: the same measure for `CCc1cc(C#N)ncc1N(C)c1cc(NC(=O)C2CC2)c2ncn(C)c2c1` [Cpd 1, N-(6-((6-cyano-4-ethylpyridin-3-yl)(methyl)amino)-1-methyl-1H-benzo[d]imidazol-4-yl)cyclopropanecarboxamide]: 0.1 to 50 nM; for `CCc1cc(C#N)cc(F)c1Nc1cc(NC(=O)C2CC2)c2ncn(C)c2c1` [Cpd 2, N-(6-(4-cyano-2-ethyl-6-fluorophenylamino)-1-methyl-1H-benzo[d]imidazol-4-yl)cyclopropanecarboxamide]: 0.1 to 50 nM; for `CCc1cc(C#N)cc(F)c1N(C)c1cc(NC(=O)C2CC2)c2ncn(C)c2c1` [Cpd 3, N-(6-((4-cyano-2-ethyl-6-fluorophenyl)(methyl)amino)-1-methyl-1H-benzo[d]imidazol-4-yl)cyclopropanecarboxamide]: 0.1 to 50 nM.
With `CCc1cc(C#N)ncc1N(C)c1cc(NC(=O)OC)c2ncn(C)c2c1` [Cpd 4, methyl 6-((6-cyano-4-ethylpyridin-3-yl)(methyl)amino)-1-methyl-1H-benzo[d]imidazol-4-ylcarbamate], the IC50 is 0.1 to 50 nM.
In the case of `CCc1cc(C#N)cc(F)c1N(C)c1cc(NC(=O)OC)c2ncn(C)c2c1` [Cpd 5, methyl 6-((4-cyano-2-ethyl-6-fluorophenyl)(methyl)amino)-1-methyl-1H-benzo[d]imidazol-4-ylcarbamate], the IC50 lay in the range of 0.1 to 50 nM.
On to `CCc1cc(C#N)ncc1Oc1cc(NC(=O)[C@H]2C[C@H]2F)c2ncn(C)c2c1` [Cpd 6, (1R,2R)-N-[6-[(6-cyano-4-ethyl-3-pyridyl)oxy]-1-methyl-benzimidazol-4-yl]-2-fluoro-cyclopropanecarboxamide], for which the IC50 was in the range of 0.1 to 50 nM.
Take `CCc1cc(C#N)ncc1N(C)c1cc(NC(=O)[C@H]2C[C@H]2F)c2ncn(C)c2c1` [Cpd 8, (1R,2R)-N-(6-((6-cyano-4-ethylpyridin-3-yl)(methyl)amino)-1-methyl-1H-benzo[d]imidazol-4-yl)-2-fluorocyclopropanecarboxamide]: the IC50 was 0.1 to 50 nM.
With `Cc1cc(C#N)ncc1N(C)c1cc(NC(=O)[C@H]2C[C@H]2F)c2ncn(C)c2c1` [Cpd 9, (1R,2R)-N-(6-((6-cyano-4-methylpyridin-3-yl)(methyl)amino)-1-methyl-1H-benzo[d]imidazol-4-yl)-2-fluorocyclopropanecarboxamide], the IC50 is 0.1 to 50 nM.
With `CCc1cc(C#N)ccc1Oc1cc(NC(=O)[C@H]2C[C@H]2F)c2ncn(C)c2c1` [Cpd 10, (1R,2R)-N-[6-(4-cyano-2-ethyl-phenoxy)-1-methyl-benzimidazol-4-yl]-2-fluoro-cyclopropanecarboxamide], the IC50 lay within 0.1 to 50 nM.
On to `CN(c1cc(NC(=O)[C@H]2C[C@H]2F)c2ncn(C)c2c1)c1c(F)cc(C#N)cc1Cl` [Cpd 11, (1R,2R)-N-[6-(2-chloro-4-cyano-6-fluoro-N-methyl-anilino)-1-methyl-benzimidazol-4-yl]-2-fluoro-cyclopropanecarboxamide], for which the half-inhibitory concentration (IC50) was in the range of 0.1 to 50 nM.
As for `Cc1cc(F)ncc1N(C)c1cc(NC(=O)[C@H]2C[C@H]2F)c2ncn(C)c2c1` [Cpd 12, (1R,2R)-2-fluoro-N-[6-[(6-fluoro-4-methyl-3-pyridyl)-methyl-amino]-1-methyl-benzimidazol-4-yl]cyclopropanecarboxamide], the IC50 was 50 to 100 nM.
`CN(c1cc(NC(=O)[C@H]2C[C@H]2F)c2ncn(C)c2c1)c1ccc(F)nc1F` [Cpd 13, (1R,2R)-N-[6-[(2,6-difluoro-3-pyridyl)-methyl-amino]-1-methyl-benzimidazol-4-yl]-2-fluoro-cyclopropanecarboxamide]: the IC50 was 100 to 500 nM.
On the same count and under the same terms, the same measure for `CN(c1cc(NC(=O)[C@H]2C[C@H]2F)c2ncn(C)c2c1)c1ccc(C#N)nc1F` [Cpd 14, (1R,2R)-N-[6-[(6-cyano-2-fluoro-3-pyridyl)-methyl-amino]-1-methyl-benzimidazol-4-yl]-2-fluoro-cyclopropanecarboxamide]: 50 to 100 nM.
In the case of `CN(c1cc(NC(=O)[C@H]2C[C@H]2F)c2ncn(C)c2c1)c1ccc(C#N)cc1F` [Cpd 15, (1R,2R)-N-[6-(4-cyano-2-fluoro-N-methyl-anilino)-1-methyl-benzimidazol-4-yl]-2-fluoro-cyclopropanecarboxamide], the IC50 was 100 to 500 nM.
`Cc1cc(S(C)(=O)=O)cc(F)c1N(C)c1cc(NC(=O)[C@H]2C[C@H]2F)c2ncn(C)c2c1` [Cpd 16, (1R,2R)-2-fluoro-N-[6-(2-fluoro-N,6-dimethyl-4-methylsulfonyl-anilino)-1-methyl-benzimidazol-4-yl]cyclopropanecarboxamide]: the half-maximal inhibitory concentration (IC50) is 0.1 to 50 nM.
As to `CN(c1cc(NC(=O)[C@H]2C[C@H]2F)c2ncn(C)c2c1)c1ccc(S(C)(=O)=O)cc1F` [Cpd 17, (1R,2R)-2-fluoro-N-[6-(2-fluoro-N-methyl-4-methylsulfonyl-anilino)-1-methyl-benzimidazol-4-yl]cyclopropanecarboxamide], the IC50 is above 500 nM.
Same read-out and setting: the same measure for `CCc1cc(S(C)(=O)=O)ncc1N(C)c1cc(NC(=O)C2CC2)c2ncn(C)c2c1` [Cpd 18, N-[6-[(4-ethyl-6-methylsulfonyl-3-pyridyl)-methyl-amino]-1-methyl-benzimidazol-4-yl]cyclopropanecarboxamide]: 0.1 to 50 nM.
Consider `Cc1cc(S(C)(=O)=O)cc(F)c1N(C)c1cc(NC(=O)C2CC2)c2ncn(C)c2c1` [Cpd 19, N-[6-(2-fluoro-N,6-dimethyl-4-methylsulfonyl-anilino)-1-methyl-benzimidazol-4-yl]cyclopropanecarboxamide], for which the IC50 lay in the range of 0.1 to 50 nM.
As to `Cc1cc(C#N)ncc1Oc1cc(NC(=O)[C@H]2C[C@H]2F)c2ncn(C)c2c1` [Cpd 20, (1R,2R)-N-[6-[(6-cyano-4-methyl-3-pyridyl)oxy]-1-methyl-benzimidazol-4-yl]-2-fluoro-cyclopropanecarboxamide], the IC50 fell in the range of 50 to 100 nM.
For `Cc1cc(C#N)nc(F)c1N(C)c1cc(NC(=O)[C@H]2C[C@H]2F)c2ncn(C)c2c1` [Cpd 21, (1R,2R)-N-[6-[(6-cyano-2-fluoro-4-methyl-3-pyridyl)-methyl-amino]-1-methyl-benzimidazol-4-yl]-2-fluoro-cyclopropanecarboxamide], the IC50 fell in the range of 0.1 to 50 nM.
Same read-out and setting: the same measure for `Cc1cnc(C#N)c(F)c1N(C)c1cc(NC(=O)[C@H]2C[C@H]2F)c2ncn(C)c2c1` [Cpd 22, (1R,2R)-N-[6-[(2-cyano-3-fluoro-5-methyl-4-pyridyl)-methyl-amino]-1-methyl-benzimidazol-4-yl]-2-fluoro-cyclopropanecarboxamide]: 0.1 to 50 nM.
With `Cc1cc(C#N)ncc1Oc1cc(NC(=O)C2CC2)c2ncn(C)c2c1` [Cpd 23, N-[6-[(6-cyano-4-methyl-3-pyridyl)oxy]-1-methyl-benzimidazol-4-yl]cyclopropanecarboxamide], the IC50 was 50 to 100 nM.
